# From patent publication US12171756B2, “NLRP3 modulators” (Innate Tumor Immunity, Inc., priority 2017, dated 2024)
# Counter-ions that a name gives are not always drawn.
# Tests used:
# human TLR8 = target: T1, human TLR8 (Homo sapiens, UniProt Q9NR97); test: In vitro human TLR8 binding reporter assay (HEK-Blue, NF-kB/AP1-inducible SEAP); type: cell-based; settings: HEK-Blue human TLR8 SEAP reporter cells; activity range classes; read-out: TLR8 Agonist EC50
# T1 construct: host or cells: human HEK-Blue cells (HEK293-derived) co-expressing TLR8 and an NF-kB/AP1-inducible SEAP reporter
# T1 sequence (Q9NR97 27-1041): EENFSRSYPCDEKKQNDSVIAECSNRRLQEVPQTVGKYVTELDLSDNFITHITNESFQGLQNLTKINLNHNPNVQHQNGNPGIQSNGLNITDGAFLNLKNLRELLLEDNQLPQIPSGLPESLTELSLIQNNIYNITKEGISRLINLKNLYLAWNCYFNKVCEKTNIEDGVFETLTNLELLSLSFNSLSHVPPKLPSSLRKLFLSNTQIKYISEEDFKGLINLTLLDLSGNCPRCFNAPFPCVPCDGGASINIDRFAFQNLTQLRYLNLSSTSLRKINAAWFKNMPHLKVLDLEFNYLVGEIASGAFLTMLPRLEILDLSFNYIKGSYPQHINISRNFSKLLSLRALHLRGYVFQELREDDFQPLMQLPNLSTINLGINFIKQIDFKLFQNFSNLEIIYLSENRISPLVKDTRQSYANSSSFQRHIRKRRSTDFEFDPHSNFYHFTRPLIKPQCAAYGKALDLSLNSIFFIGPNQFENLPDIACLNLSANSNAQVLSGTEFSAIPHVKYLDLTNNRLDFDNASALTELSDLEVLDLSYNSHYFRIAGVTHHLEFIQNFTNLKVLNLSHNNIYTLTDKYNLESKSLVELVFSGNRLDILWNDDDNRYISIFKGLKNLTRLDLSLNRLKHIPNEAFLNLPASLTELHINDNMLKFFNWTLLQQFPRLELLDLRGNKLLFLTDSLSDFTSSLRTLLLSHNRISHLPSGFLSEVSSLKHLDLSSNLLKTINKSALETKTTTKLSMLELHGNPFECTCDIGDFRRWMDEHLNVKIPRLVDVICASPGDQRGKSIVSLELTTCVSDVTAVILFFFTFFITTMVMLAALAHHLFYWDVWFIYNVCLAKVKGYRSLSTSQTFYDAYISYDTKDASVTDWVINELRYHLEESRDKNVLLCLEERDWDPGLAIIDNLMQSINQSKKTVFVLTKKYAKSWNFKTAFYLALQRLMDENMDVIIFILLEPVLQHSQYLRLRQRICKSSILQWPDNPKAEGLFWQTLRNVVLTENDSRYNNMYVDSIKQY
# In short: (§1)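 Cells are seeded and grown for 24 h. Compounds or DMSO are then added and incubated 18 h at 37 °C. Quanti-Blue is added, and SEAP is read after thirty minutes. EC50 values are normalized, with RLU from 50 μM reference standard setting 100% Ymax.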
# [1] = tested on: IL-1β production in PMA-differentiated THP-1 cells; test: Measurement of IL-1β production in PMA-differentiated THP-1 cells (ELISA, 4 hours); type: cell-based, human; settings: Homo sapiens, THP-1, human IL-1β production, assayed using one or more of the described procedures, read-out: NLRP3 hIL1B IC50
# In short: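 THP-1 cells differentiated with PMA (10 μg/ml, 24 h), replated at 1×10^6 cells/ml in RPMI with 2% FBS and exposed to compounds (e.g. 0.1–100 μM, 1% DMSO final) for 4 hours. IL-1β in cell-free supernatant quantified by ELISA against vehicle control.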
# human TLR7 = target: T2, human TLR7 (Homo sapiens, UniProt Q9NYK1); test: In vitro human TLR7 binding reporter assay (HEK-Blue, NF-kB/AP1-inducible SEAP); type: cell-based; settings: HEK-Blue human TLR7 SEAP reporter cells; activity range classes; read-out: TLR7 Agonist EC50
# T2 construct: host or cells: human HEK-Blue cells (HEK293-derived) co-expressing TLR7 and an NF-kB/AP1-inducible SEAP reporter
# T2 sequence (Q9NYK1 27-1049): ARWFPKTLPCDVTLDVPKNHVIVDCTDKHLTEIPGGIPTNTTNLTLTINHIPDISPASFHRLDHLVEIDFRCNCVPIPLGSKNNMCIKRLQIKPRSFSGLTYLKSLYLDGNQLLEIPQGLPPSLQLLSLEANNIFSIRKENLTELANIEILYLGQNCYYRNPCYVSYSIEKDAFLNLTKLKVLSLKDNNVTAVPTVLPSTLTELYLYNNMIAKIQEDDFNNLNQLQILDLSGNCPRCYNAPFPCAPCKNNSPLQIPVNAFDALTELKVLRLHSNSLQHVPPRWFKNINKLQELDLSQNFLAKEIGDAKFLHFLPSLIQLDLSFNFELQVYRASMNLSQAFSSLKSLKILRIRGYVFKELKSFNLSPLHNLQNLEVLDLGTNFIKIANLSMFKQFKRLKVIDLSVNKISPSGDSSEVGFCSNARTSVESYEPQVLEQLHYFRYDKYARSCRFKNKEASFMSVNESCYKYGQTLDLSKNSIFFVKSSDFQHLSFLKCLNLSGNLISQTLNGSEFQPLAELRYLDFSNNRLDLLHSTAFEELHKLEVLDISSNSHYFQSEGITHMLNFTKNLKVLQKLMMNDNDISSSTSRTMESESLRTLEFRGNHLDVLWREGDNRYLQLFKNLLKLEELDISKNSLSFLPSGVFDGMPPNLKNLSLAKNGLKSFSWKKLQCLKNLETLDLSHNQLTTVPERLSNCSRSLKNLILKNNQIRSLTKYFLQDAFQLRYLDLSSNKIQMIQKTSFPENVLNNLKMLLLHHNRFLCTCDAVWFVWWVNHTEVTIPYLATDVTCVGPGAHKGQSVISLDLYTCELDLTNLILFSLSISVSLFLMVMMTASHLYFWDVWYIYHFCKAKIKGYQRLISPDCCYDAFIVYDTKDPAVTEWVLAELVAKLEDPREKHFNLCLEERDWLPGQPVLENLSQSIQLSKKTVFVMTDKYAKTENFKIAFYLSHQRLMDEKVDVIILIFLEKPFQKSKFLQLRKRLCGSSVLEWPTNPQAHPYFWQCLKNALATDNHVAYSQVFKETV
# In short: as §1
EC50 (human TLR8),IC50 [1],EC50 (human TLR7),Compound
> 100 µM,0.56 µM,> 100 µM,CCOCCOc1cc(N)nc2cc(-c3ccn[nH]3)ccc12 [Compound 185]
> 100 µM,1.08 µM,> 100 µM,Nc1cc(OC2CCOCC2)c2ccc(-c3ccn[nH]3)cc2n1 [Compound 186]
> 100 µM,0.85 µM,> 100 µM,Nc1cc(OCC2CCOCC2)c2ccc(-c3ccn[nH]3)cc2n1 [Compound 187]
> 100 µM,6.31 µM,> 100 µM,CC(=O)NCCOc1cc(N)nc2cc(-c3ccn[nH]3)ccc12 [Compound 188]
> 100 µM,0.39 µM,> 100 µM,Nc1cc(OCc2ccccn2)c2ccc(-c3ccn[nH]3)cc2n1 [Compound 189]
> 100 µM,0.66 µM,> 100 µM,Nc1cc(OCc2cccnc2)c2ccc(-c3ccn[nH]3)cc2n1 [Compound 190]
> 100 µM,0.63 µM,> 100 µM,Nc1cc(O[C@H]2CC[C@H](O)CC2)c2ccc(-c3ccn[nH]3)cc2n1 [Compound 191]
> 100 µM,0.63 µM,> 100 µM,Nc1cc(OCC2(CO)CC2)c2ccc(-c3ccn[nH]3)cc2n1 [Compound 192]
> 100 µM,1.69 µM,> 100 µM,COCCCOc1cc(N)nc2cc(-c3ccn[nH]3)ccc12 [Compound 193]
> 100 µM,2.23 µM,> 100 µM,CC(CO)(CO)COc1cc(N)nc2cc(-c3ccn[nH]3)ccc12 [Compound 194]
> 100 µM,0.93 µM,> 100 µM,CC(C)(O)CCOc1cc(N)nc2cc(-c3ccn[nH]3)ccc12 [Compound 195]
> 100 µM,1.11 µM,> 100 µM,Nc1cc(OCCCn2cccn2)c2ccc(-c3ccn[nH]3)cc2n1 [Compound 196]
> 100 µM,11.4 µM,> 100 µM,Nc1cc(OCCN2CCNC2=O)c2ccc(-c3ccn[nH]3)cc2n1 [Compound 198]
> 100 µM,13.3 µM,> 100 µM,Nc1cc(O[C@H]2CCNC2=O)c2ccc(-c3ccn[nH]3)cc2n1 [Compound 199]
> 100 µM,1.89 µM,> 100 µM,CC(=O)NCCCOc1cc(N)nc2cc(-c3ccn[nH]3)ccc12 [Compound 200]
> 100 µM,5.05 µM,> 100 µM,Nc1cc(OCCn2cccn2)c2ccc(-c3ccn[nH]3)cc2n1 [Compound 201]
> 100 µM,1.89 µM,> 100 µM,"Nc1cc(OC(CO)CO)c2ccc(-c3ccn[nH]3)cc2n1 [Compound 202, 2-((2-amino-7-(1H-pyrazol-5-yl)quinolin-4-yl)oxy)propane-1,3-diol]"
> 100 µM,0.19 µM,> 100 µM,"Cc1nc(C(=O)NCCNc2cc(N)nc3cc(-c4ccn[nH]4)ccc23)cs1 [Compound 203, N-(2-((2-amino-7-(1H-pyrazol-5-yl)quinolin-4-yl)amino)ethyl)-2-methylthiazole-4-carboxamide]"
> 100 µM,0.64 µM,> 100 µM,Nc1cc(NCCNC(=O)c2ccccn2)c2ccc(-c3ccn[nH]3)cc2n1 [Compound 204]
> 100 µM,1.29 µM,> 100 µM,"COC(=O)NCCNc1cc(N)nc2cc(-c3ccn[nH]3)ccc12 [Compound 205, methyl (2-((2-amino-7-(1H-pyrazol-5-yl)quinolin-4-yl)amino)ethyl)carbamate]"
> 100 µM,0.84 µM,> 100 µM,"CS(=O)(=O)NCCNc1cc(N)nc2cc(-c3ccn[nH]3)ccc12 [Compound 206, N-(2-((2-amino-7-(1H-pyrazol-5-yl)quinolin-4-yl)amino)ethyl)methanesulfonamide]"
> 100 µM,1.07 µM,> 100 µM,"CCNC(=O)NCCNc1cc(N)nc2cc(-c3ccn[nH]3)ccc12 [Compound 207, 1-(2-((2-amino-7-(1H-pyrazol-5-yl)quinolin-4-yl)amino)ethyl)-3-ethylurea, TFA]"
> 100 µM,1.55 µM,> 100 µM,"CN(C)C(=O)NCCNc1cc(N)nc2cc(-c3ccn[nH]3)ccc12 [Compound 208, 3-(2-((2-amino-7-(1H-pyrazol-5-yl)quinolin-4-yl)amino)ethyl)-1,1-dimethylurea]"
> 100 µM,1.96 µM,> 100 µM,"Cn1ccnc1C(=O)NCCCNc1cc(N)nc2cc(-c3ccn[nH]3)ccc12 [Compound 209, N-(3-((2-amino-7-(1H-pyrazol-5-yl)quinolin-4-yl)amino)propyl)-1-methyl-1H-imidazole-2-carboxamide, 2TFA]"
> 100 µM,20.8 µM,> 100 µM,Cc1nc(C(=O)NCCCNc2cc(N)nc3cc(-c4ccn[nH]4)ccc23)c(C)s1 [Compound 210]
> 100 µM,13.5 µM,> 100 µM,Nc1cc(NCCCNC(=O)c2ccncc2)c2ccc(-c3ccn[nH]3)cc2n1 [Compound 211]
> 100 µM,9.27 µM,> 100 µM,Nc1cc(NCCCNC(=O)c2cccnc2)c2ccc(-c3ccn[nH]3)cc2n1 [Compound 212]
> 100 µM,1.55 µM,> 100 µM,"CC(=O)NCCCNc1cc(N)nc2cc(-c3ccn[nH]3)ccc12 [Compound 213, N-(3-((2-amino-7-(1H-pyrazol-5-yl)quinolin-4-yl)amino)propyl)acetamide, 2TFA]"
> 100 µM,4.61 µM,> 100 µM,"CN(C)C(=O)NCCCNc1cc(N)nc2cc(-c3ccn[nH]3)ccc12 [Compound 214, 3-(3-((2-amino-7-(1H-pyrazol-5-yl)quinolin-4-yl)amino)propyl)-1,1-dimethylurea, 2TFA]"
> 100 µM,1.94 µM,> 100 µM,"CS(=O)(=O)NCCCNc1cc(N)nc2cc(-c3ccn[nH]3)ccc12 [Compound 215, N-(3-((2-amino-7-(1H-pyrazol-5-yl)quinolin-4-yl)amino)propyl)methanesulfonamide]"
